This note sets out measurements from US20220296613A1, “FOOD-INDEPENDENT DOSING OF CV-10155 TO TREAT GABAA DISORDERS” (priority 2021, published 2022).

In this assay the test system is sleep states. Description: Sleep states by electroencephalogram (EEG) in rats. Type of assay: in vivo. The procedure: The effect of CV-10155 on various sleep states was analyzed in rats. Rats were given various doses of CV-10155, and sleep states were analyzed by electroencephalogram (EEG).
FIG. 17 is a hypnogram showing the percentage of time spent in different sleep states by rats given drug vehicle. Purple bars represent REM sleep; green bars represent non-REM sleep; blue bars represent quiet waking; and red bars represent active waking.
FIG. 18 is a hypnogram showing the percentage of time spent in different sleep states by rats given 1 mg/kg CV-10155. Purple bars represent REM sleep; green bars represent non-REM sleep; blue bars represent quiet waking; and red bars represent active waking.
FIG. 19 is a hypnogram showing the percentage of time spent in different sleep states by rats given 3 mg/kg CV-10155. Purple bars represent REM sleep; green bars represent non-REM sleep; blue bars represent quiet waking; and red bars represent active waking.
FIG. 20 is a hypnogram showing the percentage of time spent in different sleep states by rats given 6 mg/kg CV-10155. Purple bars represent REM sleep; green bars represent non-REM sleep; blue bars represent quiet waking; and red bars represent active waking.
FIG. 21 is a hypnogram showing the percentage of time spent in different sleep states by rats given 10 mg/kg CV-10155. […]

As for `C[C@@]1(O)CC[C@@]2(C)[C@@H](CC[C@@H]3[C@@H]2CC[C@]2(C)[C@@H](C(=O)Cn4cc(C#N)cn4)CC[C@@H]32)C1` [CV-10155, 1-[2-[(3R,5S,8R,9S,10S,13S,14S,17S)-3-hydroxy-3,10,13-trimethyl-1,2,4,5,6,7,8,9,11,12,14,15,16,17-tetradecahydrocyclopenta[a]phenanthren-17-yl]-2-oxoethyl]pyrazole-4-carbonitrile], the “dose producing an increase in non-REM sleep” value (EEG, 1, 3, 6, 10 mg/kg tested) is reported as at least 3 mg/kg. Moreover, the “target engagement (EEG)” value (within well-tolerated and efficacious dose ranges) is listed as “dose-dependent target engagement”.
